These results are taken from patent US9255090B2, “Heterocyclyl derivatives and their use as prostaglandin D2 receptor modulators” (Actelion Pharmaceuticals Ltd., priority 2012, dated 2016).

For test [1], the target named is hCRTH2 receptor (Homo sapiens (Human), UniProt Q9Y5Y4). The experiment in a line: hCRTH2 receptor membranes radioligand (3H-PGD2) displacement assay. The test is classed as binding. The note with it: 3H-PGD2 radioligand displacement, HEK293-hCRTH2 membranes. The method in brief: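 HEK293-hCRTH2 membranes, 20 μg/well; 3H-PGD2 added at 2.5 nM; binding buffer 50 mM Tris, 10 mM MnCl2, 1 mM EDTA, pH 7.0; 90 min RT; GF/C filtration, scintillation count. Nonspecific binding: PGD2 at […].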
On the technique in general: Displacement assays read how much labelled ligand stays bound in the presence of the test substance.

The subject of test [2] is eosinophils. The test is described as follows: Eosinophil shape change assay with human plasma. The test is classed as cell-based. Conditions: human plasma (50%), PGD2 100 nM activation, antagonistic activity. An outline of the steps: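 Human polymorphonuclear cells stained with anti-CD49d-APC, combined with compound-preincubated human plasma (50% of final volume, 4×10^6 cells/ml) for 10 min at 37° C., then stimulated 5 min with 100 nM PGD2 and fixed. Flow cytometry scored percent eosinophils with increased forward scatter.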

Each structure is given as a SMILES string. pIC50: −log10 of the molar value.

hCRTH2 receptor, sequence (Q9Y5Y4 whole entry): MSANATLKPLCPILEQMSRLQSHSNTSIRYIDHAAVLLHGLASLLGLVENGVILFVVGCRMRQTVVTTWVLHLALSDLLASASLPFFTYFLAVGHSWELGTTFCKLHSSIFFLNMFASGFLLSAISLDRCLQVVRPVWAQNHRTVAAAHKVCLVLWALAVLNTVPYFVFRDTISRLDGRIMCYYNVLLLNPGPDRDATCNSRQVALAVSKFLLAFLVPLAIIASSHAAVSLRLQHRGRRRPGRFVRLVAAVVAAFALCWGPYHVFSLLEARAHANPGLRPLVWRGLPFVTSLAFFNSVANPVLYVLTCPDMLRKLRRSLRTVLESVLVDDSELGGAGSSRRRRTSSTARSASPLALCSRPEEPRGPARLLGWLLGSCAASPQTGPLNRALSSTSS

The term pIC50 denotes the negative decadic logarithm of the IC50, by convention in mol/L. A lower pIC50 goes with a large IC50. For the compound `CCOc1cc(CC(=O)O)ccc1-c1ccc(F)c2c1CN(C(=O)CC1OCCc3ccccc31)CC2` (centres unmarked) [Example 206, {3-Ethoxy-4-[5-fluoro-2-(2-isochroman-1-yl-acetyl)-1,2,3,4-tetrahydro-isoquinolin-8-yl]-phenyl}-acetic acid], the figures for the pIC50 in test [1] and in test [2] were 8.62 and 7.85, respectively.
`O=C(O)Cc1ccc(Cl)c(-c2ccc(F)c3c2CN(C(=O)[C@@H]2C[C@H]2c2ccccc2)CC3)c1` [Example 28, {4-Chloro-3-[5-fluoro-2-((1R,2R)-2-phenyl-cyclopropanecarbonyl)-1,2,3,4-tetrahydro-isoquinolin-8-yl]-phenyl}-acetic acid]: the negative-log IC50 (pIC50) in test [1] was 8.00; in test [2] (Homo sapiens, Eosinophil) it was 7.38.
For the compound `CC(C)Oc1ccc(OCC(=O)O)cc1-c1ccc(F)c2c1CN(C(=O)OCc1ccccc1)CC2` [Example 163, 8-(5-Carboxymethoxy-2-isopropoxy-phenyl)-5-fluoro-3,4-dihydro-1H-isoquinoline-2-carboxylic acid benzyl ester], the negative-log IC50 (pIC50) in test [1] is 8.10; in test [2] (Homo sapiens, Eosinophil), 6.85.
As for `CCOc1ccc(CC(=O)O)cc1-c1ccc(F)c2c1CN(C(=O)OCC(C)C)CC2` [Example 377, 8-(5-Carboxymethyl-2-ethoxy-phenyl)-5-fluoro-3,4-dihydro-1H-isoquinoline-2-carboxylic acid isobutyl ester], the pIC50 in test [1] was 8.47; in test [2] (Homo sapiens, Eosinophil), 6.91.
As for `CCOc1ccc(CC(=O)O)cc1-c1ccc(F)c2c1CN(C(=O)CC1(c3ccc(F)cc3)CC1)CC2` [Example 277, [4-Ethoxy-3-(5-fluoro-2-{2-[1-(4-fluoro-phenyl)-cyclopropyl]-acetyl}-1,2,3,4-tetrahydro-isoquinolin-8-yl)-phenyl]-acetic acid], the pIC50 in test [1] was 8.72; in test [2] (Homo sapiens, Eosinophil), 7.68.
As for `COc1cc(CC(=O)O)ccc1-c1ccc(F)c2c1CN(C(=O)OCc1ccccc1)CC2` [Example 166, 8-(4-Carboxymethyl-2-methoxy-phenyl)-5-fluoro-3,4-dihydro-1H-isoquinoline-2-carboxylic acid benzyl ester], the pIC50 in test [1] is 8.35; in test [2] (Homo sapiens, Eosinophil), 6.93.
`COc1ccc(CC(=O)O)cc1-c1ccc(F)c2c1CN(C(=O)[C@@H]1C[C@H]1c1ccccc1F)CC2` (racemic) [Example 5, (±)-(3-{5-Fluoro-2-[trans-2-(2-fluoro-phenyl)-cyclopropanecarbonyl]-1,2,3,4-tetrahydro-isoquinolin-8-yl}-4-methoxy-phenyl)-acetic acid]: the negative-log IC50 (pIC50) is 8.44 in test [1] and 7.92 in test [2] (Homo sapiens, Eosinophil).
Turning to `COc1ccc(CC(=O)O)cc1-c1ccc(F)c2c1CN(C(=O)CC1CCc3ccccc3C1)CC2` (racemic) [Example 260], the negative-log IC50 (pIC50) was 8.85 in test [1] and 7.25 in test [2] (Homo sapiens, Eosinophil).
Taken in the same sequence, the figures for `COc1ccc(CC(=O)O)cc1-c1ccc(F)c2c1CCN(C(=O)[C@@H]1C[C@H]1c1ccccc1)CC2` (racemic) [Example 36, (±)-{3-[9-Fluoro-3-(trans-2-phenyl-cyclopropanecarbonyl)-2,3,4,5-tetrahydro-1H-benzo[d]azepin-6-yl]-4-methoxy-phenyl}-acetic acid] were 7.70 and < 6.00.
On to `CCOc1ccc(CC(=O)O)cc1-c1ccc(F)c2c1CN(C(=O)CC(C)c1ccccn1)CC2` (centres unmarked) [Example 204, {4-Ethoxy-3-[5-fluoro-2-(3-pyridin-2-yl-butyryl)-1,2,3,4-tetrahydro-isoquinolin-8-yl]-phenyl}-acetic acid], for which the values for the negative logarithm of the IC50 (pIC50) in test [1] and in test [2] were 8.54 and 7.52, respectively.
As for `CCOc1ccc(CC(=O)O)cc1-c1ccc(F)c2c1CN(C(=O)C(C)Cc1ccccc1)CC2` (centres unmarked) [Example 214], the pIC50 was 8.51 in test [1] and 7.96 in test [2] (Homo sapiens, Eosinophil).
Taken in the same sequence, the figures for `CCOc1ccc(CC(=O)O)cc1-c1ccc(F)c2c1CN(C(=O)OCc1cccc(C)n1)CC2` [Example 371, 8-(5-Carboxymethyl-2-ethoxy-phenyl)-5-fluoro-3,4-dihydro-1H-isoquinoline-2-carboxylic acid 6-methyl-pyridin-2-ylmethyl ester] were 9.22 and 7.64.
Taken in the same sequence, the figures for `CCOc1ccc(CC(=O)O)cc1-c1ccc(F)c2c1CN(C(=O)OCc1ncc(C)cc1F)CC2` [Example 366, 8-(5-Carboxymethyl-2-ethoxy-phenyl)-5-fluoro-3,4-dihydro-1H-isoquinoline-2-carboxylic acid 3-fluoro-5-methyl-pyridin-2-ylmethyl ester] were 8.38 and 7.19.
As for `CCCOc1ccc(CC(=O)O)cc1-c1ccc(F)c2c1CN(C(=O)OCc1ccccc1)CC2` [Example 197, 8-(5-Carboxymethyl-2-propoxy-phenyl)-5-fluoro-3,4-dihydro-1H-isoquinoline-2-carboxylic acid benzyl ester], the pIC50 in test [1] is 9.55; in test [2] (Homo sapiens, Eosinophil), 7.62.
Take `CCOc1ccc(CC(=O)O)cc1-c1ccc(F)c2c1CN(C(=O)CC(C)c1ccc(F)cc1)CC2` (racemic) [Example 278]: the negative-log IC50 (pIC50) in test [1] is 8.41; in test [2] (Homo sapiens, Eosinophil), 7.72.
Taken in the same sequence, the figures for `COc1ccc(CC(=O)O)cc1-c1ccc(F)c2c1CN(C(=O)CC1COCc3ccccc31)CC2` (racemic) [Example 271] were 7.65 and 7.04.
